Measured values from patent US9066938B2, “GPBP-1 inhibition and its therapeutic use” (Fibrostatin S.L., priority 2012, dated 2015).

What was measured:
A549 cells = assay type: cell-based
Experimental: FIG. 2. […] Cells were seeded in 96-well plates and treated with the indicated compound combinations. The cellular viability (cell number) was measured with alamarBlue® and arbitrary units of fluorescence after 36 h of treatment (vertical axis).
FIG. 7. […] A549 cells were seeded on 96-well culture plates and after 4 h were treated with the indicated concentrations of doxorubicin in absence or presence of T12 (50 μM) and/or CFTR-inhibitor-172 (25 μM). Cells were cultured for additional 36 h and cell viability assessed as in FIG. 2.
A549 human lung adenocarcinoma cancer cells (CLS Cell Lines Service) were used as an ex vivo model for the assessment of anti-tumor activity of specific compounds. Unless otherwise indicated A549 cells were cultured in DMEM: Ham's F12 medium supplemented with 2 mM L-glutamine and 10% fetal bovine serum. A549 cells resistant to doxorubicin (A549-DR) were obtained treating cells with 1 μM for 4 weeks. A549 cells were transfected with a plasmid that expresses GPBP-1 and further selected with G418 (Invitrogen) to obtain a cell line (A549-GPBP) that constitutively expresses GPBP-1.
Cytotoxicity assays were performed with alamarBlue® reagent (Invitrogen) according to manufacturer's instructions. A549 cells were seeded on 96-well culture plates (7,500 cells/well) and allowed to settle during 4 h. Then, cells were cultured with individual peptidomimetics at concentrations ranging from 0 to 50 μM, in presence of doxorubicin at concentrations ranging from 0 to 10 μM for 36 h. JLSM cells were harvested by treatment with 0.25% trypsin (Lonza) and plated on collagen I coated 96-well black culture plate (Perkin Elmer) at a density of 10.000 cells per cm^2. After 4 h settling, cells were treated with different peptidomimetics (with or without doxorubicin) for 36 h. Subsequently alamarBlue® reagent was added and incubation maintained for 3 h. Fluorescence was measured using 560EX nm/590EM nm filter settings with a SpectraMax GeminiXPS (Molecular Devices). Blank wells containing media were used to determine background fluorescence.
The activity shown for each compound in Table 1 is the factor by which doxorubicin LC50 is reduced by the compound at a 50-μM concentration in A549 cell cultures. […] The symbols −, −/+, +, ++, +++, ++++ in the third column are used to show relative activities of compounds in a simplified way.

[1] = system: ovarian cancer cells (OVCAR-3); experiment: Response of OVCAR-3 ovarian cancer cells to T12; assay type: cell-based; conditions: cells that did not increase GPBP expression in response to doxorubicin
[2] = system: CDKN1A (p21) and DDIT3 (CHOP) genes; experiment: qPCR of CDKN1A (p21) and DDIT3 (CHOP) mRNA in A549 cells; assay type: cell-based, human; conditions: doxorubicin 1 μM, T12 50 μM, 24 h
Experimental: FIG. 3. T12 enhances doxorubicin-induced expression of CDKN1A (p21) and DDIT3 (CHOP) genes in A549 cells. Cells were treated with doxorubicin (1 μM) and/or T12 (50 μM) for 24 h. Total RNA was isolated, reverse-transcribed, and CDKN1A (p21) and DDIT3 (CHOP) mRNA levels assessed by qPCR using TaqMan™ commercial probes and primers. Results are expressed as relative quantity (RQ) respect to untreated cells. A representative assay is shown.
Total RNA from cell samples was extracted using Ilustra RNAspin™ Mini (Ge Healthcare) according to the manufacturer's instructions. One μg of total RNA from each sample was converted to cDNA (RT) using the High Capacity cDNA Reverse Transcription Kit (Applied Biosystems). For Real-Time PCR (qPCR), 1.5 μl of cDNA was mixed with TaqMan™ Gene Expression Master Mix and the specific TaqMan™ probes and primers for COL4A3BP/GPBP, DDIT3/CHOP, CDKN1A/p21, PROM1/CD133, NANOG, MMP10 and HPRT1, all from Applied Biosystems. Hypoxanthine-guanine phosphoribosyltransferase (HPRT1) primer was used as endogenous control. qPCR was performed on a StepOnePlus™ Real-Time PCR system (Applied Biosystems) according to manufacturer's recommendations. The relative levels of mRNAs were calculated with the ΔΔCt method using untreated samples as reference (the comparative Ct method).

[3] = system: PARP cleavage in A549 cells; experiment: Flow cytometry of cleaved PARP (caspase-3-mediated apoptosis) in A549 cells; assay type: cell-based, human; conditions: doxorubicin 1 μM, T12 50 μM, 36 h
Experimental: FIG. 5. T12 enhances doxorubicin-induced caspase 3-mediated apoptosis. A549 cells were incubated with doxorubicin (1 μM) and/or T12 (50 μM) for 36 h. Subsequently, cells were stained with a PE conjugated antibody specific for human PARP-cleaved fragments and further analyzed by flow cytometry. Data are expressed as fold respect to untreated control cells. Shown is a representative experiment.
Caspase-3 activation in A549 cells was evaluated by flow cytometry using a human anti-cleaved PARP antibody conjugated to PE (BD Biosciences). Briefly, after treatment, the cells were collected by centrifugation and suspended in Perm/Wash™ (BD Biosciences) buffer for 20 min, washed and then incubated for 30 min with the antibody. Subsequently, the cells were rinsed and further analyzed by flow cytometry (BD FacsVerse™ cytometer, BD Biosciences).

[4] = Synergism of T12 with paclitaxel (no details given); conditions: T12 plus paclitaxel

COc1ccc(-c2ccc(-c3cccc(C)c3)c(C)c2)c(CCC(=O)O)c1 [T12, 3-[4″-methoxy-3,2′-dimethyl-(1,1′;4′,1″)terphenyl-2″-yl] propionic acid]
A549 cell viability, compound without doxorubicin (A549 cells; 36 h, alamarBlue): did not alter cell viability | Activity as enhancer of doxorubicin-induced cell death, relative activity symbol (A549 cells; compound at 50 μM, A549 cell cultures): +++ | effect on doxorubicin LC50 for A549 cells (A549 cells; compound combined with doxorubicin): reduced doxorubicin LC50 for A549 cells in a dose-dependent manner | responsiveness of OVCAR-3 cells to the compound [1]: not responsive | induction of CDKN1A (p21) and DDIT3 (CHOP) expression together with doxorubicin [2]: synergistic | doxorubicin-induced PARP cleavage [3]: enhanced | synergism of T12 with paclitaxel [4]: synergistic
